Experimental findings from patent publication US10759816B2, “Heterocyclic compounds as RSV inhibitors” (Enanta Pharmaceuticals, Inc., priority 2016, dated 2020) are described below.

The structures appear in SMILES notation.

In one test the test system is genotype A, "Long" strain RSV. Nature of the test: RSV-A in vitro cytoprotection assay in HEp-2 cells (ATPlite readout of cell viability). It counts as cell-based, Human respiratory syncytial virus. The settings on record: HEp-2 cells, genotype A “Long” strain RSV, cytoprotection; read-out: Human RSV-A (“Long” strain) EC50. Summed up: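 HEp-2 cells (8,000/well) given 2-fold compound dilutions in duplicate, then infected with RSV-A Long strain stock; viability read by ATPlite luminescence after 4 days. EC50 derived from cytoprotection; cytotoxicity measured on parallel uninfected plate.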
For `O=C(NC1CC1)c1cc2c(s1)-c1ccccc1N(C(=O)c1cccc(-c3cnn(C4CCOCC4)c3)n1)CC2` [Example 150], the EC50 is greater than 800 nM.

The same test, now with this note: human respiratory syncytial virus, HEp-2, HEp-2 cells, genotype A “Long” strain RSV, cytoprotection; read-out: Human RSV-A (“Long” strain) EC50.
For `Cc1cnc(N2CCOCC2)c(NC(=O)c2ccc(C(=O)N3CCc4cc(C(=O)Nc5c(C)cccc5F)sc4-c4ccccc43)cc2)c1` [Example 137], the EC50 is greater than 800 nM. With `Cc1cnc(N2CC3(CCCOC3)C2)c(NC(=O)c2ccc(C(=O)N3CCc4cc(C(=O)Nc5c(C)cccc5F)sc4-c4ccccc43)cc2)c1` [Example 138], the half-maximal effective concentration (EC50) was greater than 800 nM. `Cc1cnc(N2CCC3(COC3)C2)c(NC(=O)c2ccc(C(=O)N3CCc4cc(C(=O)Nc5c(C)cccc5F)sc4-c4ccccc43)cc2)c1` [Example 139]: the EC50 is greater than 800 nM. For `Cc1cnc(N2CC3(CCOC3)C2)c(NC(=O)c2ccc(C(=O)N3CCc4cc(C(=O)Nc5c(C)cccc5F)sc4-c4ccccc43)cc2)c1` [Example 140], the EC50 was greater than 800 nM.

Turning to `Cc1cnc(N2CC3(COC3)C2)c(NC(=O)c2ccc(C(=O)N3CCc4cc(C(=O)Nc5c(C)cccc5F)sc4-c4ccccc43)cc2)c1` [Example 141], the half-maximal effective concentration (EC50) is greater than 800 nM. For the compound `Cc1cnc(N2CC3(CCOCC3)C2)c(NC(=O)c2ccc(C(=O)N3CCc4cc(C(=O)Nc5c(C)cccc5F)sc4-c4ccccc43)cc2)c1` [Example 142], the EC50 is less than 400 nM. Consider `Cc1cccc(F)c1NC(=O)c1cc2c(s1)-c1ccccc1N(C(=O)c1cccc(-n3cc(C#N)cn3)n1)CC2` [Example 143], for which the EC50 was greater than 800 nM. Regarding `Cc1cccc(F)c1NC(=O)c1cc2c(s1)-c1ccccc1N(C(=O)c1cccc(-n3cc(S(C)(=O)=O)cn3)n1)CC2` [Example 144], the EC50 was greater than 800 nM.

`Cc1cccc(F)c1NC(=O)c1cc2c(s1)-c1ccccc1N(C(=O)c1cccc(-n3cnnc3C3CC3)n1)CC2` [Example 145]: the EC50 was greater than 800 nM.

With `Cc1cccc(F)c1NC(=O)c1cc2c(s1)-c1ccccc1N(C(=O)c1cccc(-n3ccnc3C3CC3)n1)CC2` [Example 146], the EC50 was less than 400 nM. As for `Cc1cccc(F)c1NC(=O)c1cc2c(s1)-c1ccccc1N(C(=O)c1cccc(-n3ccnc3C3CCC3)n1)CC2` [Example 147], the concentration for a half-maximal effect (EC50) is less than 400 nM.

As to `Cc1cccc(F)c1NC(=O)c1cc2c(s1)-c1ccccc1N(C(=O)c1cccc(-n3cncc3C3CC3)n1)CC2` [Example 148], the EC50 was greater than 800 nM. In the case of `Cc1cccc(F)c1NC(=O)c1cc2c(s1)-c1ccccc1N(C(=O)c1cccc(-n3cnc(C4CC4)c3)n1)CC2` [Example 149], the concentration for a half-maximal effect (EC50) is less than 400 nM. On the same count and under the same terms, next, `Cn1cc(-c2cccc(C(=O)N3CCc4cc(C(=O)NC5CC5)sc4-c4ccccc43)n2)ccc1=O` [Example 151]: greater than 800 nM; `O=C(NC1CC1)c1cc2c(s1)-c1ccccc1N(C(=O)c1cccc(-c3ccnc4ccccc34)n1)CC2` [Example 152]: greater than 800 nM; `O=C(NC1CC1)c1cc2c(s1)-c1ccccc1N(C(=O)c1cccc(-c3cncc4ccccc34)n1)CC2` [Example 153]: greater than 800 nM. Same read-out and setting: next, `O=C(NC1CC1)c1cc2c(s1)-c1ccccc1N(C(=O)c1cccc(-c3cccnc3)n1)CC2` [Example 154]: greater than 800 nM; `Cc1cncc(-c2cccc(C(=O)N3CCc4cc(C(=O)NC5CC5)sc4-c4ccccc43)n2)c1` [Example 155]: greater than 800 nM. As to `Cc1ccncc1-c1cccc(C(=O)N2CCc3cc(C(=O)NC4CC4)sc3-c3ccccc32)n1` [Example 156], the EC50 was greater than 800 nM.

In the case of `O=C(NC1CC1)c1cc2c(s1)-c1ccccc1N(C(=O)c1cccc(-c3cncc(N4CCOCC4)c3)n1)CC2` [Example 157], the EC50 lay within 400 to 800 nM. Take `O=C(NC1CC1)c1cc2c(s1)-c1ccccc1N(C(=O)c1cccc(-c3cnn(C4COC4)c3)n1)CC2` [Example 158]: the 50% effective concentration (EC50) was greater than 800 nM.

Regarding `O=C(NC1CC1)c1cc2c(s1)-c1ccccc1N(C(=O)c1cccc(-c3cnn(C4CCOC4)c3)n1)CC2` (centres unmarked) [Example 159], the EC50 is greater than 800 nM. Turning to `COCCn1cc(-c2cccc(C(=O)N3CCc4cc(C(=O)NC5CC5)sc4-c4ccccc43)n2)cn1` [Example 160], the 50% effective concentration (EC50) was greater than 800 nM. As for `O=C(NC1CC1)c1cc2c(s1)-c1ccccc1N(C(=O)c1cccc(-c3cnc(N4CCOCC4)s3)n1)CC2` [Example 161], the half-maximal effective concentration (EC50) lay within 400 to 800 nM. For the compound `Cn1ccc(-c2cccc(C(=O)N3CCc4cc(C(=O)NC5CC5)sc4-c4ccccc43)n2)cc1=O` [Example 162], the half-maximal effective concentration (EC50) was greater than 800 nM. As to `COc1ncc(-c2cccc(C(=O)N3CCc4cc(C(=O)NC5CC5)sc4-c4ccccc43)n2)cc1C` [Example 163], the EC50 was less than 400 nM. Regarding `O=C(NC1CC1)c1cc2c(s1)-c1ccccc1N(C(=O)c1cccc(-c3cn[nH]c3C3CC3)n1)CC2` [Example 164], the concentration for a half-maximal effect (EC50) was less than 400 nM. On the same count and under the same terms, next, `O=C(NC1CC1)c1cc2c(s1)-c1ccccc1N(C(=O)c1cccc(-c3cncn3C3CC3)n1)CC2` [Example 165]: less than 400 nM; `O=C(NC1CC1)c1cc2c(s1)-c1ccccc1N(C(=O)c1cccc(-c3ccnc(C4CC4)c3)n1)CC2` [Example 166]: greater than 800 nM. On to `O=C(NC1CC1)c1cc2c(s1)-c1ccccc1N(C(=O)c1cccc(-c3csc(N4CCOCC4)n3)n1)CC2` [Example 167], for which the half-maximal effective concentration (EC50) was greater than 800 nM.

With `COc1ccc(-c2cccc(C(=O)N3CCc4cc(C(=O)Nc5ccccc5)sc4-c4ccccc43)n2)cn1` [Example 168], the 50% effective concentration (EC50) was greater than 800 nM. As to `Cc1cccc(F)c1NC(=O)c1cc2c(s1)-c1ccc(F)cc1N(C(=O)c1cccc(-c3c[nH]c4ncc(F)cc34)n1)CC2` [Example 169], the EC50 was less than 400 nM.

With `Cc1cccc(F)c1NC(=O)c1cc2c(s1)-c1ccc(F)cc1N(C(=O)c1cccc(-c3cn[nH]c3C3CC3)n1)CC2` [Example 170], the EC50 was less than 400 nM. Turning to `Cc1cccc(F)c1NC(=O)c1cc2c(s1)-c1c(F)cccc1N(C(=O)c1cccc(-c3cn[nH]c3C3CC3)n1)CC2` [Example 171], the EC50 was less than 400 nM.

As for `Cc1cccc(F)c1NC(=O)c1cc2c(s1)-c1ccc(F)cc1N(C(=O)c1cccc(-c3c[nH]c4ncccc34)n1)CC2` [Example 173], the EC50 is less than 400 nM. For the compound `CCn1nccc1-c1cccc(C(=O)N2CCc3cc(C(=O)Nc4c(C)cccc4F)sc3-c3ccc(F)cc32)n1` [Example 174], the EC50 was less than 400 nM. Take `O=C(NC1CCC(F)(F)CC1)c1cc2c(s1)-c1ccccc1N(C(=O)c1cccc(-c3c[nH]nc3C3CC3)n1)CC2` [Example 175]: the EC50 was less than 400 nM.

In the case of `O=C(N[C@@H]1CCOC1)c1cc2c(s1)-c1ccccc1N(C(=O)c1cccc(-c3c[nH]nc3C3CC3)n1)CC2` [Example 176], the half-maximal effective concentration (EC50) was less than 400 nM. Same read-out and setting: to `O=C(N[C@H]1CCOC1)c1cc2c(s1)-c1ccccc1N(C(=O)c1cccc(-c3c[nH]nc3C3CC3)n1)CC2` [Example 177] belongs less than 400 nM; to `O=C(NC1CCC1)c1cc2c(s1)-c1ccccc1N(C(=O)c1cccc(-c3c[nH]nc3C3CC3)n1)CC2` [Example 178], less than 400 nM.

Regarding `O=C(NC1CC(F)(F)C1)c1cc2c(s1)-c1ccccc1N(C(=O)c1cccc(-c3c[nH]nc3C3CC3)n1)CC2` [Example 179], the EC50 is less than 400 nM.

As to `O=C(NC1CCOCC1)c1cc2c(s1)-c1ccccc1N(C(=O)c1cccc(-c3c[nH]nc3C3CC3)n1)CC2` [Example 180], the 50% effective concentration (EC50) is less than 400 nM.

In the case of `O=C(NC1CS(=O)(=O)C1)c1cc2c(s1)-c1ccccc1N(C(=O)c1cccc(-c3c[nH]nc3C3CC3)n1)CC2` [Example 181], the EC50 is greater than 800 nM.

In the case of `O=C(NC1CNC1)c1cc2c(s1)-c1ccccc1N(C(=O)c1cccc(-c3c[nH]nc3C3CC3)n1)CC2` [Example 182], the EC50 was greater than 800 nM. Take `CN1CC(NC(=O)c2cc3c(s2)-c2ccccc2N(C(=O)c2cccc(-c4c[nH]nc4C4CC4)n2)CC3)C1` [Example 183]: the EC50 was greater than 800 nM. In the case of `CS(=O)(=O)N1CC(NC(=O)c2cc3c(s2)-c2ccccc2N(C(=O)c2cccc(-c4c[nH]nc4C4CC4)n2)CC3)C1` [Example 184], the EC50 is greater than 800 nM. Same read-out and setting: to `CC(=O)N1CC(NC(=O)c2cc3c(s2)-c2ccccc2N(C(=O)c2cccc(-c4c[nH]nc4C4CC4)n2)CC3)C1` [Example 185] belongs greater than 800 nM.

In the case of `O=C(NC1CC1)c1cc2c(s1)-c1ccccc1N(C(=O)c1ccc3ccc(-c4ccncc4)cc3n1)CC2` [Example 186], the EC50 was greater than 800 nM. The same measure, in the same setting: to `O=C(NC1CC1)c1cc2c(s1)-c1ccccc1N(C(=O)c1ccc3ccc(-c4ccncc4)nc3c1)CC2` [Example 187] belongs greater than 800 nM; to `Cc1cccc(F)c1NC(=O)c1cc2c(s1)-c1ccccc1N(C(=O)c1cccc(-c3ccc4ncccc4c3)n1)CC2` [Example 188], less than 400 nM. Take `Cc1cccc(F)c1NC(=O)c1cc2c(s1)-c1ccccc1N(C(=O)c1cccc(-c3ccc4nccc(Cl)c4c3)n1)CC2` [Example 189]: the EC50 was greater than 800 nM. Regarding `Cc1cccc(F)c1NC(=O)c1cc2c(s1)-c1ccccc1N(C(=O)c1cccc(-c3ccc4[nH]c(=O)ccc4c3)n1)CC2` [Example 190], the 50% effective concentration (EC50) is less than 400 nM. As for `Cc1cccc(F)c1NC(=O)c1cc2c(s1)-c1ccccc1N(C(=O)c1cccc(-c3ccc4ccc(=O)[nH]c4c3)n1)CC2` [Example 191], the EC50 is greater than 800 nM. Take `Cc1cccc(F)c1NC(=O)c1cc2c(s1)-c1ccccc1N(C(=O)c1cccc(-c3ccc4c(c3)COC4)n1)CC2` [Example 192]: the EC50 was 400 to 800 nM. Take `Cc1cccc(F)c1NC(=O)c1cc2c(s1)-c1ccccc1N(C(=O)c1cccc(-c3ccc4occc4c3)n1)CC2` [Example 193]: the EC50 was greater than 800 nM. The same measure, in the same setting: next, `Cc1cccc(F)c1NC(=O)c1cc2c(s1)-c1ccccc1N(C(=O)c1cccc(-c3ccc4c(c3)CNC4=O)n1)CC2` [Example 194]: 400 to 800 nM; `Cc1cccc(F)c1NC(=O)c1cc2c(s1)-c1ccccc1N(C(=O)c1cccc(-c3ccc4c(c3)CN(C)C4=O)n1)CC2` [Example 195]: less than 400 nM. On the same count and under the same terms, next, `Cc1cccc(F)c1NC(=O)c1cc2c(s1)-c1ccccc1N(C(=O)c1cccc(-c3c[nH]nc3C3CC3)n1)CC2` [Example 196]: less than 400 nM.
